Here are results for two molecules from patent US20230310445A1, “LOX ENZYME INHIBITING METHODS AND COMPOSITIONS” (ANOVIA BIOSCIENCES, INC., priority 2020, published 2023).

Structures are written as SMILES. Like-named read-outs stand apart in the source and are kept apart here.

The nature of data set [1]: Permeability study in Caco-2 cell line. The settings on record: human; for efflux ratio at 2 h, 5 μM: Caco-2, pH 7.4; for Papp A→B at 2 h, 5 μM: Caco-2, apical to basolateral; for Papp A→B at 2 h, 5 μM / Papp B→A at 2 h, 5 μM: pH 7.4; for Papp B→A at 2 h, 5 μM: Caco-2, basolateral to apical. It is filed as in vitro ADME. On the procedure: Caco-2 cell suspensions were dispensed into the inserts of the 96-well HTS Transwell plate and cultivated for 14-18 days. Transepithelial electrical resistance (TEER) across the monolayer was measured using Millicell Epithelial Volt-Ohm measuring system. The Caco-2 plate was then washed twice with pre-warmed HBSS (pH 7.4) and incubated at 37° C. for 30 minutes. To determine the rate of drug transport in the apical to basolateral direction. 5 μM test compound was added to the Transwell insert and the wells in the receiver plate were filled with HBSS (pH 7.4). To determine the rate of drug transport in the basolateral to apical direction, 5 μM test compound was added to the receiver plate wells and then the Transwell inserts were filled with HBSS (pH 7.4). The plates were incubated at 37° C. for 2 hours. 50 μL samples from donor sides and receiver sides were transferred to wells of a new 96-well plate followed by the addition of 4 volume of cold methanol containing internal standards (IS). Samples were centrifuged and the supernatant was used for LC-MS/MS analysis. After the incubation, residue solutions were removed from the Transwell plates, and Lucifer yellow (100 μM) solution was added to each Transwell insert, followed by filling the receiver wells with HBSS. The plates were incubated at 37° C. for 30 minutes. 80 μL samples were removed from the apical and basolateral wells and the fluorescence of Lucifer yellow was measured in a microplate reader with 485 nm excitation and 530 nm emission.

Data set [2] is described as follows: Microsome stability study. As to conditions: for half-life at 2 μM / microsomal CLint at 2 μM / CLint scaled at 2 μM: CD-1, pH 7.4; for half-life at 2 μM / microsomal CLint at 2 μM: male mouse liver microsomes 0.5 mg/mL, NADPH; for CLint scaled at 2 μM: male, read-out: Scaled-up CLint; for CLint scaled at 2 μM / Predicted hepatic CL: mouse liver microsomes. It counts as in vitro ADME, mouse. On the procedure: Pooled CD-1 mouse liver microsomes at 0.5 mg/mL were pre-incubated in phosphate buffer (100 mM, pH 7.4) containing 1 mM NADPH and 3 mM MgCl2 in a 96-well plate for 5 minutes at 37° C. Ultra-pure water was added instead of NADPH in the negative control group to exclude the misleading factor that resulted from instability of chemical itself. The reaction was initiated by adding test compound at the final concentration of 2 μM and incubated at 37° C. Aliquots were taken from the incubation at 0, 15, 30, 45 and 60 minutes followed by the addition of 4 volume of cold acetonitrile containing internal standards. Samples were centrifuged and supernatant was used for LC-MS/MS analysis.

For data set [3], the target named is T1, Recombinant human LOXL3 (lysyl oxidase like 3) (Homo sapiens, UniProt P58215).
T1 construct: purchased R&D systems
T1 sequence (P58215 26-753): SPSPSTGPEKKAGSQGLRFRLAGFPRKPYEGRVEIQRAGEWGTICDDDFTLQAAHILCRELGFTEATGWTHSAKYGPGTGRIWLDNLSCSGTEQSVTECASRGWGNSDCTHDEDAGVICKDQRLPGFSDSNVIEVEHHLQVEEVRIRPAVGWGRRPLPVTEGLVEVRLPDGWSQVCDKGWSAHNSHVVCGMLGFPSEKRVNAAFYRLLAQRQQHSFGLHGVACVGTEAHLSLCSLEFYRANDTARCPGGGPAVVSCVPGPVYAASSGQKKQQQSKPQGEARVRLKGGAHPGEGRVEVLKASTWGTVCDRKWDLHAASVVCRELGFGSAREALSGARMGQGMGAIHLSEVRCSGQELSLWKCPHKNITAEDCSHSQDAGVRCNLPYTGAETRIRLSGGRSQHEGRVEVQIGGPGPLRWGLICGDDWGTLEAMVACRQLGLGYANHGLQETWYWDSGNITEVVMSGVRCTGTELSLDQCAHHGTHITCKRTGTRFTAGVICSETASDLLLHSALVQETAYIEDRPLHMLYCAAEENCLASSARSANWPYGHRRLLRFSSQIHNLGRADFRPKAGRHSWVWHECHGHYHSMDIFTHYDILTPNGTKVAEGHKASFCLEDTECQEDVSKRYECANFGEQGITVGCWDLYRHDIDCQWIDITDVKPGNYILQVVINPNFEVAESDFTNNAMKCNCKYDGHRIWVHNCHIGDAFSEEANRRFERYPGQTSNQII
Briefly: LOXL3 inhibition assay (fluorometric, cadaverine/Amplex Red/HRP). It is filed as biochemical. As to conditions: IC50 class; recombinant human LOXL3, cadaverine substrate; read-out: Activity Range LOXL3. The protocol: The ability of compounds to inhibit one or more of the lysyl oxidases LOXL2 and/or LOXL3 was determined using a fluorometric assay. This assay measures the activity of lysyl oxidases by coupling the reaction with horseradish peroxidase-catalyzed […]. The activity assay protocol uses cadaverine as substrate that releases hydrogen peroxide upon transformation by the specific LOX family enzyme present in the sample. Hydrogen peroxide is in turn detected using a red fluorescence substrate for HRP-coupled reactions (Amplex Red Enzyme Assays, Thermo Scientific Fisher). This leads to increase in fluorescence that can be easily detected at Ex/Em=540/590 nm in a fluorescence microplate reader.
Enzymes: Recombinant human LOXL2 (lysyl oxidase like 2) and recombinant human LOXL3 (lysyl oxidase like 3) were purchased from R&D systems and assays were performed in 1.2 M urea, 50 mM sodium borate buffer pH 8.0, and 10 mM CaCl.
Reaction: Final concentration in the LOXL2 and LOXL3 assays were as following and performed in a total volume of […]:
Experimental procedure: 5 μl of freshly prepared reaction buffer were delivered to reaction wells. Compounds were resuspended in 100% DMSO at 10 mM and delivered into buffer using acoustic technology (Echo550; nanoliter range). A 3× solution of LOXL2 or LOXL3 in reaction buffer was prepared (“enzyme solution”) and 5 μL of enzyme solution was added into the reaction wells. Buffer only was added to column 1 for no protein control. Reactions were incubated for 30 minutes at 37° C. A 3×mixture of cadaverine, Amplex Red, and HRP (“Substrate/Detection Mix) was prepared and subsequently 5 μL of the mixture added to each reaction well. Progress of reactions was monitored for 60 minutes at 37° C. using Clariostar plate reader (ex 530-12, ems 600-40). For all activity assays, pan-LOX inhibitor CCT365623 (Tang et al, 2017) and LOXL2/LOXL3 inhibitor PAT-1251 (PharmaKea) were included as standards.
Data analysis: Slope of the linear portion of the progress curve was calculated using Clariostar software. Typical analysis interval was between 8-30 min, but varied between experiments. The background subtracted signals (No protein wells are considered as background) were converted to % activity relative to DMSO controls. Data was analyzed using GraphPad Prism 4 with “sigmoidal dose-response (variable slope)”; 4 parameters with Hill Slope. Constraints: Bottom=Constant equal to 0. Top=Must be less than 120.

Where [4] appears, read: Caco-2, pH 7.4, Caco-2, apical to basolateral, read-out: Recovery (%)AP-BL.
The mark [5] stands for this setting: Caco-2, pH 7.4, Caco-2, basolateral to apical, read-out: Recovery (%)BL-AP.

With `CS(=O)(=O)[C@H]1C[C@@H](S(=O)(=O)c2cccc(CN)c2)CN(c2ccccc2)C1` (racemic) [Example 23, cis-(3-((-5-(Methylsulfonyl)-1-phenylpiperidin-3-yl)sulfonyl)phenyl)methanamine], in data set [1], the efflux ratio at 2 h, 5 μM was 61.4; the Papp A→B at 2 h, 5 μM is 0.38 ×10⁻⁶ cm/s; the Papp B→A at 2 h, 5 μM was determined as 23.3 ×10⁻⁶ cm/s. Also, the recovery at 2 h, 5 μM in data set [1] (setting [4]) is 86.5%. Moreover, the recovery at 2 h, 5 μM in data set [1] (setting [5]) was 103%. Moreover, in data set [2], the half-life at 2 μM is 269 min, the microsomal CLint at 2 μM was determined as 5.14 µL/min/mg, the CLint scaled at 2 μM came out at 22.5 mL/min/kg and the “Predicted hepatic CL” value is listed as 18.00 mL/min/kg. For the same molecule, the IC50 in data set [3] fell in the range of 1 to 30 µM.
As to `CN(C)C(=O)N1C[C@@H](c2ccccc2)C[C@@H](S(=O)(=O)c2cccc(CN)c2)C1.O=C(O)C(F)(F)F` (racemic) [Example 74, cis-3-((3-(Aminomethyl)phenyl)sulfonyl)-N,N-dimethyl-5-phenylpiperidine-1-carboxamide 2,2,2-trifluoroacetate], in data set [1], the efflux ratio at 2 h, 5 μM was 47.1; the Papp A→B at 2 h, 5 μM was 0.71 ×10⁻⁶ cm/s; the Papp B→A at 2 h, 5 μM is 33.3 ×10⁻⁶ cm/s. Moreover, in data set [1] (setting [4]), the recovery at 2 h, 5 μM turned out to be 77.4%. In data set [1] (setting [5]), the recovery at 2 h, 5 μM worked out at 90.8%. In addition, in data set [2], the half-life at 2 μM came to 113 min, the microsomal CLint at 2 μM stood at 12.2 µL/min/mg, the CLint scaled at 2 μM turned out to be 53.6 mL/min/kg and the “Predicted hepatic CL” value is recorded as 33.58 mL/min/kg. Further, the IC50 in data set [3] lay in the range of 1 to 30 µM.

As a reminder, the efflux ratio is a quotient of directional permeabilities that is used to spot active efflux. In general, Papp A→B refers to the apparent permeability from the apical to the basolateral side of a cell layer. A high value points to fast passage. The term Papp B→A denotes the apparent permeability from the basolateral to the apical side of a cell layer. As usually defined, the half-life is the time in which the quantity being followed falls by half. Broadly, the microsomal CLint is a measure of how fast metabolising enzymes remove a compound, apart from limits set by blood flow. As a reminder, the CLint scaled is the capacity of the preparation to metabolise the compound, expressed as a volume cleared per time.
